Data as given in article PMC9116245, “New 1,2,3-triazole linked ciprofloxacin-chalcones induce DNA damage by inhibiting human topoisomerase I& II and tubulin polymerization” (Journal of Enzyme Inhibition and Medicinal Chemistry, 2022).

Tests used:
Assay type in all cases: cell-based
[1] = tested on: 59 human cancer cell lines; test: NCI one-dose screen, whole panel; conditions: for activity at 10 µM: Homo sapiens, mean over the panel, read-out: Mean Growth Percent
Method: (§1) For screening of anticancer properties, all the developed compounds were chosen by the (NCI) for in-vitro antitumor evaluation. The assay was carried out using 59 human cancer cell lines obtained from nine tumour subpanels (breast, ovarian, melanoma, leukaemia, renal, CNS, lung, prostate, and colon cancer cell lines). Compounds were assessed at a 10 µM concentration. […] Also, hybrids 4a, 4b, 4e, 4i and 4j produced significant anti-proliferative effect in several cancer cells, particularly in leukaemia (RPMI-8226) and colon (HCT116) cells with growth percent of 47.87, −14.59, −24.56, −24.42, −15.84, −9.74, −53.36, −10.26, −31.29, and −39.51%, respectively.
(§2) The method description for NCI anticancer screening is provided in detail in the standard NCI-60 testing protocol.

HT-29 = test: MTT assay; conditions: Homo sapiens; HT-29, MTT assay, 24 h incubation
Method in brief: (§3)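 Colorectal lines treated with 1, 5, 10, 20, 40, 80 or 100 µM compound, or DMSO vehicle. Proliferation read by MTT reduction.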

Caco-2 = test: MTT assay; conditions: Homo sapiens; Caco-2, MTT assay, 24 h incubation
Method in brief: as §3

HCT116 = test: MTT assay; conditions: Homo sapiens, HCT-116, 24 h incubation
Method in brief: as §3

M14 = test: NCI one-dose screen; conditions: Homo sapiens; M14, 10 µM; read-out: Growth Percent
Method: as §1, §2

SN12C = test: NCI one-dose screen; conditions: Homo sapiens, read-out: Growth Percent
Method: as §1, §2

HOP-92 = test: NCI one-dose screen; conditions: Homo sapiens; HOP-92, 10 µM; read-out: Growth Percent
Method: as §1, §2

OVCAR-3 = test: NCI one-dose screen; conditions: Homo sapiens; OVCAR-3, 10 µM; read-out: Growth Percent
Method: as §1, §2

SNB-19 = test: NCI one-dose screen; conditions: Homo sapiens; SNB-19, 10 µM; read-out: Growth Percent
Method: as §1, §2

SNB-75 = test: NCI one-dose screen; conditions: Homo sapiens; SNB-75, 10 µM; read-out: Growth Percent
Method: as §1, §2

HCC-2998 = test: NCI one-dose screen; conditions: Homo sapiens; HCC-2998, 10 µM; read-out: Growth Percent
Method: as §1, §2

RXF 393 = test: NCI one-dose screen; conditions: Homo sapiens; RXF 393, 10 µM; read-out: Growth Percent
Method: as §1, §2

HOP-62 = test: NCI one-dose screen; conditions: Homo sapiens; HOP-62, 10 µM; read-out: Growth Percent
Method: as §1, §2

HS 578T = test: NCI one-dose screen; conditions: Homo sapiens, read-out: Growth Percent
Method: as §1, §2

HCT-15 = test: NCI one-dose screen; conditions: Homo sapiens; HCT-15, 10 µM; read-out: Growth Percent
Method: as §1, §2

SK-MEL-28 = test: NCI one-dose screen; conditions: Homo sapiens; SK-MEL-28, 10 µM; read-out: Growth Percent
Method: as §1, §2

UACC-62 = test: NCI one-dose screen; conditions: Homo sapiens; UACC-62, 10 µM; read-out: Growth Percent
Method: as §1, §2

NCI-H522 = test: NCI one-dose screen; conditions: Homo sapiens; NCI-H522, 10 µM; read-out: Growth Percent
Method: as §1, §2

HT29 = test: NCI one-dose screen; conditions: Homo sapiens, HT-29; HT29, 10 µM; read-out: Growth Percent
Method: as §1, §2

OVCAR-4 = test: NCI one-dose screen; conditions: Homo sapiens; OVCAR-4, 10 µM; read-out: Growth Percent
Method: as §1, §2

K-562 = test: NCI one-dose screen; conditions: Homo sapiens, K562; K-562, 10 µM; read-out: Growth Percent
Method: as §1, §2

A549/ATCC = test: NCI one-dose screen; conditions: Homo sapiens, read-out: Growth Percent
Method: as §1, §2

PC-3 = test: NCI one-dose screen; conditions: Homo sapiens; PC-3, 10 µM; read-out: Growth Percent
Method: as §1, §2

EKVX = test: NCI one-dose screen; conditions: Homo sapiens, read-out: Growth Percent
Method: as §1, §2

NCI-H460 = test: NCI one-dose screen; conditions: Homo sapiens; NCI-H460, 10 µM; read-out: Growth Percent
Method: as §1, §2

SF-539 = test: NCI one-dose screen; conditions: Homo sapiens; SF-539, 10 µM; read-out: Growth Percent
Method: as §1, §2

OVCAR-8 = test: NCI one-dose screen; conditions: Homo sapiens; OVCAR-8, 10 µM; read-out: Growth Percent
Method: as §1, §2

DU-145 = test: NCI one-dose screen; conditions: Homo sapiens; DU-145, 10 µM; read-out: Growth Percent
Method: as §1, §2

UACC-257 = test: NCI one-dose screen; conditions: Homo sapiens; UACC-257, 10 µM; read-out: Growth Percent
Method: as §1, §2

IGROV1 = test: NCI one-dose screen; conditions: Homo sapiens, IGROV-1; IGROV1, 10 µM; read-out: Growth Percent
Method: as §1, §2

OVCAR-5 = test: NCI one-dose screen; conditions: Homo sapiens; OVCAR-5, 10 µM; read-out: Growth Percent
Method: as §1, §2

CAKI-1 = test: NCI one-dose screen; conditions: Homo sapiens; CAKI-1, 10 µM; read-out: Growth Percent
Method: as §1, §2

TK-10 = test: NCI one-dose screen; conditions: Homo sapiens; TK-10, 10 µM; read-out: Growth Percent
Method: as §1, §2

NCI-H23 = test: NCI one-dose screen; conditions: Homo sapiens; NCI-H23, 10 µM; read-out: Growth Percent
Method: as §1, §2

SK-OV-3 = test: NCI one-dose screen; conditions: Homo sapiens; SK-OV-3, 10 µM; read-out: Growth Percent
Method: as §1, §2

Row | Structure (SMILES) | activity at 10 µM [1] [%] | IC50 (HT-29) [µM] | IC50 (Caco-2) [µM] | IC50 (HCT116) [µM] | activity at 10 µM (M14) [%] | activity at 10 µM (SN12C) [%] | activity at 10 µM (HOP-92) [%] | activity at 10 µM (OVCAR-3) [%] | activity at 10 µM (SNB-19) [%] | activity at 10 µM (SNB-75) [%] | activity at 10 µM (HCC-2998) [%] | activity at 10 µM (RXF 393) [%] | activity at 10 µM (HOP-62) [%] | activity at 10 µM (HS 578T) [%] | activity at 10 µM (HCT-15) [%] | activity at 10 µM (SK-MEL-28) [%] | activity at 10 µM (UACC-62) [%] | activity at 10 µM (NCI-H522) [%] | activity at 10 µM (HT29) [%] | activity at 10 µM (OVCAR-4) [%] | further results
1 | COc1ccc(/C=C/C(=O)c2ccc(-n3cc(CN4CCN(c5cc6c(cc5F)c(=O)c(C(=O)O)cn6C5CC5)CC4)nn3)cc2)cc1OC [Compound 4i, (E)-1-cyclopropyl-7-(4-((1-(4-(3–(3,4-dimethoxyphenyl)acryloyl)phenyl)-1H-1,2,3-triazol-4-yl)methyl)piperazin-1-yl)-6-fluoro-4-oxo-1,4-dihydroquinoline-3-carboxylic acid] | 59.5 | 18.6 ± 3.19 | 11.3 ± 2.39 | 4.87 ± 0.78 | 59 | 32.6 | 66.5 | 39.3 | 67.7 | 58.3 | 44 | 64.2 | 75.6 | 52.8 | 80.6 | 79.8 | 53.9 | 67.6 | 29.6 | 88 | activity at 10 µM (K-562): 42.5%; activity at 10 µM (A549/ATCC): 66.1%; activity at 10 µM (PC-3): 56.3%; activity at 10 µM (EKVX): 96.6%; activity at 10 µM (NCI-H460): 77.9%; activity at 10 µM (SF-539): 50.8%; activity at 10 µM (OVCAR-8): 67.4%; activity at 10 µM (DU-145): 83.2%; activity at 10 µM (UACC-257): 78.7%; activity at 10 µM (IGROV1): 26.6%; activity at 10 µM (OVCAR-5): 92.1%; activity at 10 µM (CAKI-1): 67.8%; activity at 10 µM (TK-10): 104%; activity at 10 µM (NCI-H23): 78.7%; activity at 10 µM (SK-OV-3): 76.9%
2 | COc1cc(/C=C/C(=O)c2ccc(-n3cc(CN4CCN(c5cc6c(cc5F)c(=O)c(C(=O)O)cn6C5CC5)CC4)nn3)cc2)cc(OC)c1OC [Compound 4j, (E)-1-cyclopropyl-6-fluoro-4-oxo-7–(4-((1–(4-(3-(3,4,5-trimethoxyphenyl)acryloyl)phenyl)-1H-1,2,3-triazol-4-yl)methyl)piperazin-1-yl)-1,4-dihydroquinoline-3-carboxylic acid] | 33.7 | 13.2 ± 2.4 | 7.14 ± 2.48 | 2.53 ± 0.31 | 28.2 | 14.9 | 81.6 | -16.1 | 44.7 | 65.5 | -39.7 | 4.51 | 38.7 | 21.5 | 33.8 | 34.6 | 54.1 | 49.5 | 4.76 | 73.7 | Growth Percent ([1]; majority of cancer cell lines, 10 µM): 67.46 to −39.69%; activity at 10 µM (K-562): 7.81%; activity at 10 µM (A549/ATCC): 15.7%; activity at 10 µM (PC-3): 9.95%; activity at 10 µM (EKVX): 80%; activity at 10 µM (NCI-H460): 53.1%; activity at 10 µM (SF-539): 7.09%; activity at 10 µM (OVCAR-8): 39.7%; activity at 10 µM (DU-145): 45.8%; activity at 10 µM (UACC-257): 62%; activity at 10 µM (IGROV1): -24.8%; activity at 10 µM (OVCAR-5): 72.3%; activity at 10 µM (CAKI-1): 60%; activity at 10 µM (TK-10): 80%; activity at 10 µM (NCI-H23): 50.6%; activity at 10 µM (SK-OV-3): 67.5%
